# Reference: ChEMBL document CHEMBL1201862, “PubChem BioAssay data set” (2004)
# Activity calls are given as the source filed them.
# Columns and labels:
# [1] = target: Intestinal-type alkaline phosphatase (Homo sapiens, UniProt P09923); assay: Dose Response confirmation of uHTS hits from a small molecule inhibitors of human intestinal alkaline phosphatase via a luminescent assay. [Related pubchem assays (depositor defined):AID2544, AID2574]; format: functional
# [2] = target: T1, Corticotropin-releasing factor receptor 2/Corticotropin-releasing factor-binding protein (Homo sapiens, UniProt P24387+Q13324); assay: activators of CRF receptor 2 with binding protein – uHTS hits, confirmation (AID 602473); format: functional; details: read-out: EC50_Mean
# T1 sequence (Q13324 whole entry): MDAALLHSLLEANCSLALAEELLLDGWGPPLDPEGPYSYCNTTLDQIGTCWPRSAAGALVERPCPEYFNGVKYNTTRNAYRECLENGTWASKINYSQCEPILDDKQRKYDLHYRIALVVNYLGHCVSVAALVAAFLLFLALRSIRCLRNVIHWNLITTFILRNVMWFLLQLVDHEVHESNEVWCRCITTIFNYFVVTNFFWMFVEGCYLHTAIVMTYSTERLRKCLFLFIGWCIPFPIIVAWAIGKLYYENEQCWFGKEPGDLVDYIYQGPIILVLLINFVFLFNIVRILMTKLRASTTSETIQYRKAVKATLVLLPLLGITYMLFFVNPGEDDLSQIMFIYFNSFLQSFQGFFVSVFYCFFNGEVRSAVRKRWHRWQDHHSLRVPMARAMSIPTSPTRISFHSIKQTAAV
# T1 sequence (P24387 whole entry): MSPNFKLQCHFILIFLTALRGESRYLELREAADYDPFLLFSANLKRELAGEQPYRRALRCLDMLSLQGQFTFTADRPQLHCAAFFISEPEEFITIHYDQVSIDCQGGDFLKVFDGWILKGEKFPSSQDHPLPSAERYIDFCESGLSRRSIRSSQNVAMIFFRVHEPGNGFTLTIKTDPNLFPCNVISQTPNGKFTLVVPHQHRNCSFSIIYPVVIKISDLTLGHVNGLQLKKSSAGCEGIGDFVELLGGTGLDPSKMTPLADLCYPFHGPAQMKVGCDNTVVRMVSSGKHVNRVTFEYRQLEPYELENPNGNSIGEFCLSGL
# [3] = target: Female germline-specific tumor suppressor gld-1 (Caenorhabditis elegans, UniProt Q17339); assay: inhibitors of GLD-1 binding to TGE RNA, dose response, biochemical, fluorescence polarization, C. elegans (AID 2802);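 further: fluorescence polarization of labeled TGE RNA bound by purified gld-1 protein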
# Protein Rev = Protein Rev (Human immunodeficiency virus type 1 group M subtype B (isolate HXB2)(HIV-1), UniProt P04618); assay: inhibitors of Rev binding to RRE RNA, dose response, biochemical, fluorescence polarization, HIV-1 (AID 434976); design: species or system Human immunodeficiency virus 1
# Genome polyprotein = Genome polyprotein (dengue virus type 2, UniProt P29990); assay: Dengue-2 NS5 methyltransferase inhibitors, primary screen, biochemical, confirmation dose response (AID 588689); format: functional
# [4] = target: Neurotensin receptor type 1 (Homo sapiens, UniProt P30989); format: functional;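 further: Image-based confirmatory dose-response assay measuring agonist activity at NTR1; NTR1-expressing U2OS osteosarcoma cells imaged for beta-arrestin GFP spot formation; agonist potency where compounds increase beta-arrestin recruitment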
# HEK293 [5] = assay: TNF Induced NF-kB Luciferase in 293-NF-kB-Luc Stable Cells. [Related pubchem assays: 1266, 1299, 1269, 1373, 1292, 1290, 1302, 1371, 1283, 1270, 1295, 1271, 1375, 1294, 1374, 1281, 1293, 1291, 1289, 1280, 465, 1368, 1364, 1282, 1372, 1365, 1369, 1370, 1367, 1366 ]; format: functional, cell-based; details: Homo sapiens
# HEK293 [6] = assay: Cytotoxicity assay in HEK293 cells. [Related pubchem assays (depositor defined):AID1266, AID1269, AID1270, AID1271, AID1280, AID1281, AID1282, AID1283, AID1287, AID1289, AID1290, AID1291, AID1292, AID1293, AID1294, AID1295, AID1299, AID1302, AID1364, AID1365, AID1366, AID1367, AID1369, AID1370, AID1371, AID1372, AID1373, AID1374, AID1375, AID1384 …; format: functional, cell-based; details: Homo sapiens
# HEK293 [7] = assay: inhibitors of LMP1-driven NF-kB reporter, dose response, cell-based, HEK293, luciferase, cherry-pick (AID 588343); format: functional; details: Homo sapiens
# Protein RecA = target: T2, Protein RecA (Mycobacterium tuberculosis, UniProt P9WHJ3); assay: Fluorescence Cell-Free Homogeneous Dose Retest to Identify Inhibitors of RecA-Intein Splicing Activity. [Related pubchem assays (depositor defined):AID2097, AID2223, AID489010, AID492950]; format: functional
# T2 sequence (P9WHJ3 whole entry): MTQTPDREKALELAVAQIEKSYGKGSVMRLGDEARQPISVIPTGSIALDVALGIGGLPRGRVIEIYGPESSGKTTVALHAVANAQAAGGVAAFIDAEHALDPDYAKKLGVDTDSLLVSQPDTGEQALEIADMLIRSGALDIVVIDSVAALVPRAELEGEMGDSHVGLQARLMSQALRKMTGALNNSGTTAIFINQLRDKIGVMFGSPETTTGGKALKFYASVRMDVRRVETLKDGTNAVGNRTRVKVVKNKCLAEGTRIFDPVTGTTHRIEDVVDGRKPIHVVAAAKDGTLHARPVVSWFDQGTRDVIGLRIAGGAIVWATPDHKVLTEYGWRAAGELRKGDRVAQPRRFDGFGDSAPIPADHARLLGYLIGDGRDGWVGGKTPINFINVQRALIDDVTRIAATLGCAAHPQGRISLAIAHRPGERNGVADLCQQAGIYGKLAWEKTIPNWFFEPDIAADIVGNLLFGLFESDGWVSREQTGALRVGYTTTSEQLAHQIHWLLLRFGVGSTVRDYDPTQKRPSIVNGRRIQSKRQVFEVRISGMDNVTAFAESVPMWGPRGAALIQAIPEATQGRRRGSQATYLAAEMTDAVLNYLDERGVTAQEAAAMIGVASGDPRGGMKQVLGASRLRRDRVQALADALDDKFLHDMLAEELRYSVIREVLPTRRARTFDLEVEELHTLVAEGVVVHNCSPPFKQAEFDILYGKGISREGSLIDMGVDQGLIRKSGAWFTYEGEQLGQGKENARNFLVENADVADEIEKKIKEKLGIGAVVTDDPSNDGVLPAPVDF
# [8] = target: Luciferin 4-monooxygenase (Photinus pyralis, UniProt P08659); assay: In vitro luciferase assay using purified luciferase. [Related pubchem assays: 1299, 1270, 1295, 1375, 1287, 1281, 1293, 1291, 1289, 1280, 465, 1364, 1282, 1372, 1365, 1370, 1367, 1366, 1266, 1373, 1292, 1290, 1302, 1371, 1283, 1271, 1294, 1374, 1368, 1369 ]
# HEK293 [9] = assay: PMA/Ionomycin induced NF-kB luciferase assay in 293- NF-kB-Luc stable cells. [Related pubchem assays: 1299, 1270, 1295, 1375, 1287, 1281, 1293, 1291, 1289, 1280, 465, 1364, 1282, 1372, 1365, 1370, 1367, 1366, 1269, 1373, 1292, 1290, 1302, 1371, 1283, 1271, 1294, 1374, 1368, 1369 ]; format: functional, cell-based; details: Homo sapiens
# [10] = target: T3, Replicative DNA helicase DnaB (Mycobacterium tuberculosis, UniProt P9WMR3); assay: DnaB intein splicing inhibitors, dose response, biochemical, cell-free fluorescence (AID 449749); format: functional
# T3 sequence (P9WMR3 whole entry): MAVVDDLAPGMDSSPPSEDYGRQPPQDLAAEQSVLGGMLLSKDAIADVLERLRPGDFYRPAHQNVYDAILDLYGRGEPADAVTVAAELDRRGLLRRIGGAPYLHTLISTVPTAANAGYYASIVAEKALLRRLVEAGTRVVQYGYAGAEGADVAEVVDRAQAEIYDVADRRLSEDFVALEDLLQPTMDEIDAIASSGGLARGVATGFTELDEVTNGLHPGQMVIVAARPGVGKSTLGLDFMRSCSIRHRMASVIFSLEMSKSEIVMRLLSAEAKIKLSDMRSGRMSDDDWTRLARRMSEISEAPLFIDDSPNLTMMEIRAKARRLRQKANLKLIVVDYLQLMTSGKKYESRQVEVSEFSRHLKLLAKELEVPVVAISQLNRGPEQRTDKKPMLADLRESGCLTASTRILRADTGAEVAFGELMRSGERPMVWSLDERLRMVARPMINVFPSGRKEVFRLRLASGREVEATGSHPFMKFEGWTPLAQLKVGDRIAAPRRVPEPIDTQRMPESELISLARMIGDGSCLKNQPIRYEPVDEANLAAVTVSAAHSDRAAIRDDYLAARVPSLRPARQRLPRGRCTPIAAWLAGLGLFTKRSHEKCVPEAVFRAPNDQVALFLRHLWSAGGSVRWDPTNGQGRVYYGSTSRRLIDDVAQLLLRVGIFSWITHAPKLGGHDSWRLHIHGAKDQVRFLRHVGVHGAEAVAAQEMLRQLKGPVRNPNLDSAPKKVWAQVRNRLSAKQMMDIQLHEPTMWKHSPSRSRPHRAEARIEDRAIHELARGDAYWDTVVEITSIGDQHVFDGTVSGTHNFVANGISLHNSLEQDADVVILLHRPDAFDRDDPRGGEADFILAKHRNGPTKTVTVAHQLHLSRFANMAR
# [11] = target: Protein phosphatase methylesterase 1 (Homo sapiens, UniProt Q9Y570); assay: PME-1 inhibitor potency by in-gel ABPP, dose response, selectivity assay for PME-1 inhibitor project, cell lysate, mouse brain cytosol, FP-rhodamine, panel member PME-1 Assay Panel member description: Inhibition of endogenously expressed PME-1 (AID 2366)
# Trypsin = Trypsin (Sus scrofa, UniProt P00761); assay: porcine trypsin inhibitors, dose response, selectivity assay for Rce1 protease inhibitor project, biochemical, quenched peptide fluorescence, cherry-pick (AID 488789)
# Trypsin, sequence (P00761 whole entry): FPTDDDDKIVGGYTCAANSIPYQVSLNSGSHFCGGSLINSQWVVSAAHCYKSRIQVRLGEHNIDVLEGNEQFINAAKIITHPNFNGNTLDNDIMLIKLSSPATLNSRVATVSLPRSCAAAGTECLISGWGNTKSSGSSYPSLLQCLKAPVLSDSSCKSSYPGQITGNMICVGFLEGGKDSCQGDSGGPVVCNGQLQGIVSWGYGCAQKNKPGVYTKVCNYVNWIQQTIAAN
# Protein phosphatase methylesterase 1, sequence (Q9Y570 whole entry): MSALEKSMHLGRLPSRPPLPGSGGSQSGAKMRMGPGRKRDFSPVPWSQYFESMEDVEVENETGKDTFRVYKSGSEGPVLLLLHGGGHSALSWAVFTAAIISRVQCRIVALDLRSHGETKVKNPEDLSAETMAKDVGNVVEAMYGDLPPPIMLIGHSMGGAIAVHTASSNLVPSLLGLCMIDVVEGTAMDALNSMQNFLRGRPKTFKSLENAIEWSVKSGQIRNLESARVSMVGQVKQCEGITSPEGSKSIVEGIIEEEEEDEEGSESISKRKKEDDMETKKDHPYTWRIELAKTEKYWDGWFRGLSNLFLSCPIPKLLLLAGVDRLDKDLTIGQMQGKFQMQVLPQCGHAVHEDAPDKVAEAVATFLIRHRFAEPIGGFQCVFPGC
# Neurotensin receptor type 1, sequence (P30989 whole entry): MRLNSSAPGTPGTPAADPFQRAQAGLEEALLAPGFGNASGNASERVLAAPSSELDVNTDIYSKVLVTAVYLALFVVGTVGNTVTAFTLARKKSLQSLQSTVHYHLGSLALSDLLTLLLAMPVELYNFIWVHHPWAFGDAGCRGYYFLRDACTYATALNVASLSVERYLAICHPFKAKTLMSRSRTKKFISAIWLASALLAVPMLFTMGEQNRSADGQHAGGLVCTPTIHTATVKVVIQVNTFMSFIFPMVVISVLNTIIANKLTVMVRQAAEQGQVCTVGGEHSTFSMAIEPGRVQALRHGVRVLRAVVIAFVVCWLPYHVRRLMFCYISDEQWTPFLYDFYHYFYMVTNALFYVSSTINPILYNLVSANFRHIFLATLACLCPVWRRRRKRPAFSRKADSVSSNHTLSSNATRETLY
# Female germline-specific tumor suppressor gld-1, sequence (Q17339 whole entry): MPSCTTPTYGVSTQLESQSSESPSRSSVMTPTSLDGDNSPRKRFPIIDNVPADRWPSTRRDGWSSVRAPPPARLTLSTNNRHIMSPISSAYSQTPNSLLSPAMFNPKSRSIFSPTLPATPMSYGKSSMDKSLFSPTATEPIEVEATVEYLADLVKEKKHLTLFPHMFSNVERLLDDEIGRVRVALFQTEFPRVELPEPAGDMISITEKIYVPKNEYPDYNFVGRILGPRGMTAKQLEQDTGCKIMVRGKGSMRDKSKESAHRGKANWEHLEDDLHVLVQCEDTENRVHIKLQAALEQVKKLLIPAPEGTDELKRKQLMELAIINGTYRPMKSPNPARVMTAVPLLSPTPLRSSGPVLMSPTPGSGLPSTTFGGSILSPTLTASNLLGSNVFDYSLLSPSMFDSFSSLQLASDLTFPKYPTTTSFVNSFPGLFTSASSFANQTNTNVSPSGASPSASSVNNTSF
# Luciferin 4-monooxygenase, sequence (P08659 whole entry): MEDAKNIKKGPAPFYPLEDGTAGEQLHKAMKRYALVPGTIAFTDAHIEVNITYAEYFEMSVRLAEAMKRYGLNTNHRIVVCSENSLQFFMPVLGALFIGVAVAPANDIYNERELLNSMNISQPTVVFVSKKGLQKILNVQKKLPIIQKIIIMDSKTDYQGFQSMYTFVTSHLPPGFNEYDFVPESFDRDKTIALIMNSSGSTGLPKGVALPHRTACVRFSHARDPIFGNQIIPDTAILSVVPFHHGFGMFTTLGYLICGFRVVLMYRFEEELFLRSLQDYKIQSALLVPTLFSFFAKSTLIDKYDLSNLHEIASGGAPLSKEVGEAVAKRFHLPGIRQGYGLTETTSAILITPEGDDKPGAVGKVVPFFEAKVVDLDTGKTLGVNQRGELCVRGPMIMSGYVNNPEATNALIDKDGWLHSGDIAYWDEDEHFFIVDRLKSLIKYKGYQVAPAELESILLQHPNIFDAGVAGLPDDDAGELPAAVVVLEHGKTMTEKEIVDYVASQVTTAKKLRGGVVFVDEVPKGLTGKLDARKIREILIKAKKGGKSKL
# Intestinal-type alkaline phosphatase, sequence (P09923 whole entry): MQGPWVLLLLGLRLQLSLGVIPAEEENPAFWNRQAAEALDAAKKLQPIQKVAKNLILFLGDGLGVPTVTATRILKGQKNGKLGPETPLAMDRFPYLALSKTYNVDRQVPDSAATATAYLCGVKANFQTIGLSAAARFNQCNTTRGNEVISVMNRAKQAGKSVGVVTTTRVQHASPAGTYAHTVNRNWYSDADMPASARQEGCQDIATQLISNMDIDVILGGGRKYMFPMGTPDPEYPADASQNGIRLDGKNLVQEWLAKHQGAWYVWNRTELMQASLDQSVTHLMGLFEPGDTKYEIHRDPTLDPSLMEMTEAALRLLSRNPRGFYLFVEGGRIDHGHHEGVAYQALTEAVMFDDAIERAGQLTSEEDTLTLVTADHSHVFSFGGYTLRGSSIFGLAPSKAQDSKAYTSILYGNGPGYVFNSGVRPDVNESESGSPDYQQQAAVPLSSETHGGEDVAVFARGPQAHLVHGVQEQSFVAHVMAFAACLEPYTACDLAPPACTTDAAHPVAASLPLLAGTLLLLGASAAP
# Genome polyprotein, sequence (P29990 2492-3391 limits assumed): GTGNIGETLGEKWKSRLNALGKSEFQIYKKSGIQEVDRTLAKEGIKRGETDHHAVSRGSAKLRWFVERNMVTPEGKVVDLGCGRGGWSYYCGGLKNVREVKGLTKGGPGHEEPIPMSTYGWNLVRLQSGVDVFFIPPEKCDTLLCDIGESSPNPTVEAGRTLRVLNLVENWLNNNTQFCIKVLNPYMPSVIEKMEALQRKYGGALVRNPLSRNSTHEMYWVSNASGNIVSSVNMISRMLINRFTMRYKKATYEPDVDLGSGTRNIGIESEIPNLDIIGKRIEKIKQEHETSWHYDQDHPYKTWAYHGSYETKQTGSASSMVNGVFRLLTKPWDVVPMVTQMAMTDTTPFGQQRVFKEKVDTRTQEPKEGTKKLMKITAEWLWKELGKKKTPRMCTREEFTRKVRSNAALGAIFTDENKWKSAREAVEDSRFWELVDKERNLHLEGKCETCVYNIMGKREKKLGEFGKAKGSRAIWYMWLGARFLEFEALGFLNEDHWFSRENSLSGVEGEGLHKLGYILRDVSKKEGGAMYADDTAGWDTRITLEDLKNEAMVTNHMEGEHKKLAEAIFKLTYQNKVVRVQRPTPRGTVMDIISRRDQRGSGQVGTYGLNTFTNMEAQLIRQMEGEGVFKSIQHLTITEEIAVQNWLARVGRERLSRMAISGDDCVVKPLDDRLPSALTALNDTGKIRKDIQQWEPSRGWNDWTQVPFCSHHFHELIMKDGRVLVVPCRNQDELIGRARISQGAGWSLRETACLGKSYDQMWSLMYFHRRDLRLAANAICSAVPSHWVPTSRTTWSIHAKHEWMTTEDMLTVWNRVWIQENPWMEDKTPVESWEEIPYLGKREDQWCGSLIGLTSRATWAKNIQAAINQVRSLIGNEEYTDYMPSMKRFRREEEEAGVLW
# Protein Rev, sequence (P04618 whole entry): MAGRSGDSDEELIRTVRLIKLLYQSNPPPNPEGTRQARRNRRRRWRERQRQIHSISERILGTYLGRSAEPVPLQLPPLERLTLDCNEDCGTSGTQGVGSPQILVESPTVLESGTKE
smiles,measurement,setting,value
COc1ccc2nc(N3CCC(O)CC3)c(C#N)cc2c1,IC50,[1],> 100 µM (inactive)
same,EC50,[2],> 53 µM (inactive)
same,IC50,[3],24.9 µM (inactive)
same,IC50,Protein Rev,67.6 µM (not active)
same,IC50,Genome polyprotein,59.2 µM (active)
O=C(/C=C\c1ccccc1OC(=O)c1ccccc1F)c1cc2ccccc2o1,EC50,[4],12 µM (active)
Cc1n[nH]c2c1C(c1c(C)nn(-c3ccccc3)c1Cl)C(C#N)=C(N)O2 (stereo not given),EC50,HEK293 [5],1.68 µM (active)
same,EC50,HEK293 [6],> 8 µM (inactive)
same,AC50,HEK293 [7],7.01 µM (active)
same,EC50,Protein RecA,13.5 µM (active)
same,EC50,[8],> 8 µM (not active)
same,EC50,HEK293 [9],1 µM (active)
same,AC50,[10],14 µM (active)
Cc1noc(C)c1S(=O)(=O)n1cccc1/C=C(\C#N)S(C)(=O)=O,IC50,[11],> 20 µM (inactive)
CSC[C@H](NC(=O)COc1cc2c(c3oc(=O)cc(C)c13)CCC(C)(C)O2)C(=O)O,AC50,Trypsin,12 µM (active)
